{"source": "ChEMBL document CHEMBL1201861", "about": "“Genomics of Drug Sensitity in Cancer screening data, Wellcome Trust Sanger Institute”", "test_in_all_cases": "cells", "conditions_in_all_cases": "Homo sapiens", "key": {"KINGS-1": {"test_system": "KINGS-1", "assay_type": "functional, cell-based", "description": "SANGER: Inhibition of human KINGS-1 cell growth in a cell viability assay."}, "Calu-6": {"test_system": "Calu-6", "assay_type": "functional, cell-based", "description": "SANGER: Inhibition of human Calu-6 cell growth in a cell viability assay."}, "NCI-H1395": {"test_system": "NCI-H1395", "assay_type": "functional, cell-based", "description": "SANGER: Inhibition of human NCI-H1395 cell growth in a cell viability assay."}, "KARPAS-299": {"test_system": "KARPAS-299", "assay_type": "functional, cell-based", "description": "SANGER: Inhibition of human KARPAS-299 cell growth in a cell viability assay."}, "TE-12": {"test_system": "TE-12", "assay_type": "functional, cell-based", "description": "SANGER: Inhibition of human TE-12 cell growth in a cell viability assay."}, "VA-ES-BJ": {"test_system": "VA-ES-BJ", "assay_type": "functional, cell-based", "description": "SANGER: Inhibition of human VA-ES-BJ cell growth in a cell viability assay."}, "EW-3": {"test_system": "EW-3", "assay_type": "functional, cell-based", "description": "SANGER: Inhibition of human EW-3 cell growth in a cell viability assay."}, "TE-8": {"test_system": "TE-8", "assay_type": "functional, cell-based", "description": "SANGER: Inhibition of human TE-8 cell growth in a cell viability assay."}, "RKO": {"test_system": "RKO", "assay_type": "functional, cell-based", "description": "SANGER: Inhibition of human RKO cell growth in a cell viability assay."}, "EW-24": {"test_system": "EW-24", "assay_type": "functional, cell-based", "description": "SANGER: Inhibition of human EW-24 cell growth in a cell viability assay."}, "COLO-800": {"test_system": "COLO-800", "assay_type": "functional, cell-based", "description": "SANGER: Inhibition of human COLO-800 cell growth in a cell viability assay."}, "KNS-81-FD": {"test_system": "KNS-81-FD", "assay_type": "functional, cell-based", "description": "SANGER: Inhibition of human KNS-81-FD cell growth in a cell viability assay."}, "NCI-H1650": {"test_system": "NCI-H1650", "assay_type": "functional, cell-based", "description": "SANGER: Inhibition of human NCI-H1650 cell growth in a cell viability assay."}, "HT-144": {"test_system": "HT-144", "assay_type": "functional, cell-based", "description": "SANGER: Inhibition of human HT-144 cell growth in a cell viability assay."}, "ML-2": {"test_system": "ML-2", "assay_type": "functional, cell-based", "description": "SANGER: Inhibition of human ML-2 cell growth in a cell viability assay."}, "TGBC1TKB": {"test_system": "TGBC1TKB", "assay_type": "functional, cell-based", "description": "SANGER: Inhibition of human TGBC1TKB cell growth in a cell viability assay."}, "LB373-MEL-D": {"test_system": "LB373-MEL-D", "assay_type": "functional, cell-based", "description": "SANGER: Inhibition of human LB373-MEL-D cell growth in a cell viability assay."}, "LC-2-ad": {"test_system": "LC-2-ad", "assay_type": "functional, cell-based", "description": "SANGER: Inhibition of human LC-2-ad cell growth in a cell viability assay."}, "KALS-1": {"test_system": "KALS-1", "assay_type": "functional, cell-based", "description": "SANGER: Inhibition of human KALS-1 cell growth in a cell viability assay."}, "U-87 MG": {"test_system": "U-87 MG", "assay_type": "functional, cell-based, U-87MG ATCC", "description": "SANGER: Inhibition of human U-87-MG cell growth in a cell viability assay."}, "SK-PN-DW": {"test_system": "SK-PN-DW", "assay_type": "functional, cell-based", "description": "SANGER: Inhibition of human SK-PN-DW cell growth in a cell viability assay."}, "MZ1-PC": {"test_system": "MZ1-PC", "assay_type": "functional, cell-based", "description": "SANGER: Inhibition of human MZ1-PC cell growth in a cell viability assay."}, "no-10": {"test_system": "no-10", "assay_type": "functional, cell-based", "description": "SANGER: Inhibition of human no-10 cell growth in a cell viability assay."}, "NCI-H2126": {"test_system": "NCI-H2126", "assay_type": "functional, cell-based", "description": "SANGER: Inhibition of human NCI-H2126 cell growth in a cell viability assay."}, "MZ7-mel": {"test_system": "MZ7-mel", "assay_type": "functional, cell-based", "description": "SANGER: Inhibition of human MZ7-mel cell growth in a cell viability assay."}, "GOTO": {"test_system": "GOTO", "assay_type": "functional, cell-based", "description": "SANGER: Inhibition of human GOTO cell growth in a cell viability assay."}, "EM-2": {"test_system": "EM-2", "assay_type": "functional, cell-based", "description": "SANGER: Inhibition of human EM-2 cell growth in a cell viability assay."}, "L-363": {"test_system": "L-363", "assay_type": "functional, cell-based", "description": "SANGER: Inhibition of human L-363 cell growth in a cell viability assay."}, "KGN": {"test_system": "KGN", "assay_type": "functional, cell-based", "description": "SANGER: Inhibition of human KGN cell growth in a cell viability assay."}, "COLO-668": {"test_system": "COLO-668", "assay_type": "functional, cell-based", "description": "SANGER: Inhibition of human COLO-668 cell growth in a cell viability assay."}, "LOX IMVI": {"test_system": "LOX IMVI", "assay_type": "functional, cell-based", "description": "SANGER: Inhibition of human LOXIMVI cell growth in a cell viability assay."}, "NCI-H23": {"test_system": "NCI-H23", "assay_type": "functional, cell-based", "description": "SANGER: Inhibition of human NCI-H23 cell growth in a cell viability assay."}, "NCI-H1648": {"test_system": "NCI-H1648", "assay_type": "functional, cell-based", "description": "SANGER: Inhibition of human NCI-H1648 cell growth in a cell viability assay."}, "NCI-H1155": {"test_system": "NCI-H1155", "assay_type": "functional, cell-based", "description": "SANGER: Inhibition of human NCI-H1155 cell growth in a cell viability assay."}, "RXF 393": {"test_system": "RXF 393", "assay_type": "functional, cell-based", "description": "SANGER: Inhibition of human RXF393 cell growth in a cell viability assay."}, "IA-LM": {"test_system": "IA-LM", "assay_type": "functional, cell-based", "description": "SANGER: Inhibition of human IA-LM cell growth in a cell viability assay."}, "NEC8": {"test_system": "NEC8", "assay_type": "functional, cell-based", "description": "SANGER: Inhibition of human NEC8 cell growth in a cell viability assay."}, "EW-16": {"test_system": "EW-16", "assay_type": "functional, cell-based", "description": "SANGER: Inhibition of human EW-16 cell growth in a cell viability assay."}, "SK-N-DZ": {"test_system": "SK-N-DZ", "assay_type": "functional, cell-based", "description": "SANGER: Inhibition of human SK-N-DZ cell growth in a cell viability assay."}, "NCI-H1092": {"test_system": "NCI-H1092", "assay_type": "functional, cell-based", "description": "SANGER: Inhibition of human NCI-H1092 cell growth in a cell viability assay."}, "KLE": {"test_system": "KLE", "assay_type": "functional, cell-based", "description": "SANGER: Inhibition of human KLE cell growth in a cell viability assay."}, "DB": {"test_system": "DB", "assay_type": "functional, cell-based", "description": "SANGER: Inhibition of human DB cell growth in a cell viability assay."}, "NB5": {"test_system": "NB5", "assay_type": "functional, cell-based", "description": "SANGER: Inhibition of human NB5 cell growth in a cell viability assay."}, "NCI-H226": {"test_system": "NCI-H226", "assay_type": "functional, cell-based", "description": "SANGER: Inhibition of human NCI-H226 cell growth in a cell viability assay."}, "MS-1": {"test_system": "MS-1", "assay_type": "functional, cell-based", "description": "SANGER: Inhibition of human MS-1 cell growth in a cell viability assay."}, "K562": {"test_system": "K562", "assay_type": "functional, cell-based", "description": "SANGER: Inhibition of human K-562 cell growth in a cell viability assay."}, "EW-11": {"test_system": "EW-11", "assay_type": "functional, cell-based", "description": "SANGER: Inhibition of human EW-11 cell growth in a cell viability assay."}, "TE-9": {"test_system": "TE-9", "assay_type": "functional, cell-based", "description": "SANGER: Inhibition of human TE-9 cell growth in a cell viability assay."}, "DEL": {"test_system": "DEL", "assay_type": "functional, cell-based", "description": "SANGER: Inhibition of human DEL cell growth in a cell viability assay."}, "TK-10": {"test_system": "TK-10", "assay_type": "functional, cell-based", "description": "SANGER: Inhibition of human TK10 cell growth in a cell viability assay."}, "NCI-H1838": {"test_system": "NCI-H1838", "assay_type": "functional, cell-based", "description": "SANGER: Inhibition of human NCI-H1838 cell growth in a cell viability assay."}, "GR-ST": {"test_system": "GR-ST", "assay_type": "functional, cell-based", "description": "SANGER: Inhibition of human GR-ST cell growth in a cell viability assay."}, "SBC-1": {"test_system": "SBC-1", "assay_type": "functional, cell-based", "description": "SANGER: Inhibition of human SBC-1 cell growth in a cell viability assay."}, "CGTH-W-1": {"test_system": "CGTH-W-1", "assay_type": "functional, cell-based", "description": "SANGER: Inhibition of human CGTH-W-1 cell growth in a cell viability assay."}, "TE-5": {"test_system": "TE-5", "assay_type": "functional, cell-based", "description": "SANGER: Inhibition of human TE-5 cell growth in a cell viability assay."}, "EKVX": {"test_system": "EKVX", "assay_type": "functional, cell-based", "description": "SANGER: Inhibition of human EKVX cell growth in a cell viability assay."}, "SW 962": {"test_system": "SW 962", "assay_type": "functional, cell-based", "description": "SANGER: Inhibition of human SW962 cell growth in a cell viability assay."}, "A101D": {"test_system": "A101D", "assay_type": "functional, cell-based", "description": "SANGER: Inhibition of human A101D cell growth in a cell viability assay."}, "SF-126": {"test_system": "SF-126", "assay_type": "functional, cell-based", "description": "SANGER: Inhibition of human SF126 cell growth in a cell viability assay."}, "HD-MY-Z": {"test_system": "HD-MY-Z", "assay_type": "functional, cell-based", "description": "SANGER: Inhibition of human HD-MY-Z cell growth in a cell viability assay."}, "no-11": {"test_system": "no-11", "assay_type": "functional, cell-based", "description": "SANGER: Inhibition of human no-11 cell growth in a cell viability assay."}, "SH-4": {"test_system": "SH-4", "assay_type": "functional, cell-based", "description": "SANGER: Inhibition of human SH-4 cell growth in a cell viability assay."}, "SK-NEP-1": {"test_system": "SK-NEP-1", "assay_type": "functional, cell-based", "description": "SANGER: Inhibition of human SK-NEP-1 cell growth in a cell viability assay."}, "GAK": {"test_system": "GAK", "assay_type": "functional, cell-based", "description": "SANGER: Inhibition of human GAK cell growth in a cell viability assay."}, "HC-1": {"test_system": "HC-1", "assay_type": "functional, cell-based", "description": "SANGER: Inhibition of human HC-1 cell growth in a cell viability assay."}, "NCI-H1355": {"test_system": "NCI-H1355", "assay_type": "functional, cell-based", "description": "SANGER: Inhibition of human NCI-H1355 cell growth in a cell viability assay."}}}
{"smiles": "CC[C@]1(O)C[C@@H]2CN(CCc3c([nH]c4ccccc34)[C@@](C(=O)OC)(c3cc4c(cc3OC)N(C)[C@H]3[C@@](O)(C(=O)OC)[C@H](OC(C)=O)[C@]5(CC)C=CCN6CC[C@]43[C@@H]65)C2)C1", "note": "[VINBLASTINE]", "values": [{"measurement": "IC50", "setting": "KINGS-1", "result": 9.32, "unit": "nM"}, {"measurement": "IC50", "setting": "Calu-6", "result": "> 100", "unit": "nM"}, {"measurement": "IC50", "setting": "NCI-H1395", "result": 4.28, "unit": "nM"}, {"measurement": "IC50", "setting": "KARPAS-299", "result": "> 100", "unit": "nM"}, {"measurement": "IC50", "setting": "TE-12", "result": "> 100", "unit": "nM"}, {"measurement": "IC50", "setting": "VA-ES-BJ", "result": 3.27, "unit": "nM"}, {"measurement": "IC50", "setting": "EW-3", "result": 37.2, "unit": "nM"}, {"measurement": "IC50", "setting": "TE-8", "result": 6.16, "unit": "nM"}, {"measurement": "IC50", "setting": "RKO", "result": 8.24, "unit": "nM"}, {"measurement": "IC50", "setting": "EW-24", "result": 18, "unit": "nM"}, {"measurement": "IC50", "setting": "COLO-800", "result": 3.34, "unit": "nM"}, {"measurement": "IC50", "setting": "KNS-81-FD", "result": 20.2, "unit": "nM"}, {"measurement": "IC50", "setting": "NCI-H1650", "result": "> 100", "unit": "nM"}, {"measurement": "IC50", "setting": "HT-144", "result": 3.32, "unit": "nM"}, {"measurement": "IC50", "setting": "ML-2", "result": 8.65, "unit": "nM"}, {"measurement": "IC50", "setting": "TGBC1TKB", "result": 31.2, "unit": "nM"}, {"measurement": "IC50", "setting": "LB373-MEL-D", "result": 64.1, "unit": "nM"}, {"measurement": "IC50", "setting": "LC-2-ad", "result": 7.9, "unit": "nM"}, {"measurement": "IC50", "setting": "KALS-1", "result": 7.79, "unit": "nM"}, {"measurement": "IC50", "setting": "U-87 MG", "result": 30, "unit": "nM"}, {"measurement": "IC50", "setting": "SK-PN-DW", "result": 6.14, "unit": "nM"}, {"measurement": "IC50", "setting": "MZ1-PC", "result": 24.2, "unit": "nM"}, {"measurement": "IC50", "setting": "no-10", "result": "> 100", "unit": "nM"}, {"measurement": "IC50", "setting": "NCI-H2126", "result": 25.9, "unit": "nM"}, {"measurement": "IC50", "setting": "MZ7-mel", "result": 11.1, "unit": "nM"}, {"measurement": "IC50", "setting": "GOTO", "result": 8.21, "unit": "nM"}, {"measurement": "IC50", "setting": "EM-2", "result": 5.32, "unit": "nM"}, {"measurement": "IC50", "setting": "L-363", "result": 6, "unit": "nM"}, {"measurement": "IC50", "setting": "KGN", "result": 33.3, "unit": "nM"}, {"measurement": "IC50", "setting": "COLO-668", "result": "> 100", "unit": "nM"}, {"measurement": "IC50", "setting": "LOX IMVI", "result": 6.98, "unit": "nM"}, {"measurement": "IC50", "setting": "NCI-H23", "result": 5.71, "unit": "nM"}, {"measurement": "IC50", "setting": "NCI-H1648", "result": 5.52, "unit": "nM"}, {"measurement": "IC50", "setting": "NCI-H1155", "result": 43.7, "unit": "nM"}, {"measurement": "IC50", "setting": "RXF 393", "result": 1.44, "unit": "nM"}, {"measurement": "IC50", "setting": "IA-LM", "result": 68.6, "unit": "nM"}, {"measurement": "IC50", "setting": "NEC8", "result": 5.12, "unit": "nM"}, {"measurement": "IC50", "setting": "EW-16", "result": 7.83, "unit": "nM"}, {"measurement": "IC50", "setting": "SK-N-DZ", "result": 37.4, "unit": "nM"}, {"measurement": "IC50", "setting": "NCI-H1092", "result": "> 100", "unit": "nM"}, {"measurement": "IC50", "setting": "KLE", "result": "> 100", "unit": "nM"}, {"measurement": "IC50", "setting": "DB", "result": 1.69, "unit": "nM"}, {"measurement": "IC50", "setting": "NB5", "result": 15.7, "unit": "nM"}, {"measurement": "IC50", "setting": "NCI-H226", "result": 13.8, "unit": "nM"}, {"measurement": "IC50", "setting": "MS-1", "result": 30.8, "unit": "nM"}, {"measurement": "IC50", "setting": "K562", "result": "> 100", "unit": "nM"}, {"measurement": "IC50", "setting": "EW-11", "result": 7.15, "unit": "nM"}, {"measurement": "IC50", "setting": "TE-9", "result": 4.27, "unit": "nM"}, {"measurement": "IC50", "setting": "DEL", "result": 2.16, "unit": "nM"}, {"measurement": "IC50", "setting": "TK-10", "result": 42.4, "unit": "nM"}, {"measurement": "IC50", "setting": "NCI-H1838", "result": "> 100", "unit": "nM"}, {"measurement": "IC50", "setting": "GR-ST", "result": 7.63, "unit": "nM"}, {"measurement": "IC50", "setting": "SBC-1", "result": 8.1, "unit": "nM"}, {"measurement": "IC50", "setting": "CGTH-W-1", "result": 5.56, "unit": "nM"}, {"measurement": "IC50", "setting": "TE-5", "result": 6.14, "unit": "nM"}, {"measurement": "IC50", "setting": "EKVX", "result": "> 100", "unit": "nM"}, {"measurement": "IC50", "setting": "SW 962", "result": 19.4, "unit": "nM"}, {"measurement": "IC50", "setting": "A101D", "result": 31.4, "unit": "nM"}, {"measurement": "IC50", "setting": "SF-126", "result": 21.9, "unit": "nM"}, {"measurement": "IC50", "setting": "HD-MY-Z", "result": 3.33, "unit": "nM"}, {"measurement": "IC50", "setting": "no-11", "result": 38.8, "unit": "nM"}, {"measurement": "IC50", "setting": "SH-4", "result": 43.5, "unit": "nM"}, {"measurement": "IC50", "setting": "SK-NEP-1", "result": 1.5, "unit": "nM"}, {"measurement": "IC50", "setting": "GAK", "result": "> 100", "unit": "nM"}, {"measurement": "IC50", "setting": "HC-1", "result": 4.21, "unit": "nM"}, {"measurement": "IC50", "setting": "NCI-H1355", "result": 19.5, "unit": "nM"}]}
